Measured values taken from ChEMBL document CHEMBL1145724, “Cyclic amine sulfonamides as linkers in the design and synthesis of novel human beta(3) adrenergic receptor agonists” (Bioorg Med Chem Lett, 2003).

Legend:
[1] = target: T1, Beta-3 adrenergic receptor (Homo sapiens, UniProt P13945); assay: Agonistic activity against cloned human beta3-AR (beta-3-adrenergic receptor) in CHO cells; format: functional, cell-based
Target sequence in this assay (P13945 whole entry): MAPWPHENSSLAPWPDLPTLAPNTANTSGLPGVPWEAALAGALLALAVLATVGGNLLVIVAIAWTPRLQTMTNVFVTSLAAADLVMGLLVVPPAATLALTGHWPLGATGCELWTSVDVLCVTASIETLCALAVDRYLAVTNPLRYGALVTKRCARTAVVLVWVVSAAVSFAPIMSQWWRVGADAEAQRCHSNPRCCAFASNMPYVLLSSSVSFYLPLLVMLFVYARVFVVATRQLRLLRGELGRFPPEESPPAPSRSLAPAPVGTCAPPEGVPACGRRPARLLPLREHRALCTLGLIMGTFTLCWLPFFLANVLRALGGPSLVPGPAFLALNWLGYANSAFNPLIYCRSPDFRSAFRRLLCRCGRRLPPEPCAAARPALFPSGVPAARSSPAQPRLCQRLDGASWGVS

[2] = target: T1, Beta-3 adrenergic receptor; assay: Intrinsic activity against cloned human beta3-AR was measured as fractions of the maximal response
Target sequence in this assay (P13945 whole entry, looked up): as the sequence (P13945 whole entry) above

[3] = target: T2, Beta-1 adrenergic receptor (Homo sapiens, UniProt P08588); assay: Intrinsic activity against cloned human beta1-AR was measured as fractions of the maximal response
Target sequence in this assay (P08588 whole entry, looked up): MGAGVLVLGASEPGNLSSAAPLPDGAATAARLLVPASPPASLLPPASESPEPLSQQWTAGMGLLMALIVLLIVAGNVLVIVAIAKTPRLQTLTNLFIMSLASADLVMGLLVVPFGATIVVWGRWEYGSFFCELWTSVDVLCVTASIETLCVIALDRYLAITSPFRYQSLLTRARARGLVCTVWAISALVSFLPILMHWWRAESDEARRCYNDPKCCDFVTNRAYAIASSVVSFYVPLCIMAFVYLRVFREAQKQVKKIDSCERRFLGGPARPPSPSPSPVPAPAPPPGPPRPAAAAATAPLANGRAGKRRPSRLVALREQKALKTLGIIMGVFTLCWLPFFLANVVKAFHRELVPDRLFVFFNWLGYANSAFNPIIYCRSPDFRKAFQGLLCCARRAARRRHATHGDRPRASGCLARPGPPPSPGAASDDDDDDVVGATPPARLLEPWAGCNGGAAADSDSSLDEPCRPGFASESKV

[4] = target: T2, Beta-1 adrenergic receptor; assay: Agonistic activity against cloned human beta1-AR (beta-1-adrenergic receptor) in CHO cells; format: functional, cell-based
Target sequence in this assay (P08588 whole entry): as the sequence (P08588 whole entry, looked up) above

[5] = target: Beta-2 adrenergic receptor (Homo sapiens, UniProt P07550); assay: Agonistic activity against cloned human […] (beta-2-adrenergic receptor) in CHO cells; format: functional, cell-based
Chain of Beta-2 adrenergic receptor (P07550 whole entry): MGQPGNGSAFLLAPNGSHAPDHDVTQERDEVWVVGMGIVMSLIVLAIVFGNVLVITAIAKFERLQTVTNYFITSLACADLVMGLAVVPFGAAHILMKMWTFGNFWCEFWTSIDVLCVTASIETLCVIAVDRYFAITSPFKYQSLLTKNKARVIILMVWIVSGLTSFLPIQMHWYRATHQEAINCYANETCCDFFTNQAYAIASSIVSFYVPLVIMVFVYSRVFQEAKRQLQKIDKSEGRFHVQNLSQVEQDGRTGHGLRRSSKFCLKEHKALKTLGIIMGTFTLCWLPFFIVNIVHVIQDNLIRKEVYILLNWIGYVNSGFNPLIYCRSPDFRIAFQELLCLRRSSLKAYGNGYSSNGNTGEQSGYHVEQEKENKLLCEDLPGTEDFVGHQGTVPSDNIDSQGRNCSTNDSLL

EC50 [1] [nM]	Intrinsic activity [2]	Intrinsic activity [3]	EC50 [4] [nM]	EC50 [5] [nM]	Compound
850					O=c1[nH]c2cccc(OC[C@@H](O)CNC3CCN(S(=O)(=O)c4cccc5nsnc45)CC3)c2[nH]1
	0.72	0.32			COc1ccc(S(=O)(=O)N2CCC(NC[C@H](O)COc3cccc4[nH]c(O)nc34)CC2)cc1
	0.64				O=S(=O)(c1ccc2oc3ccccc3c2c1)N1CCC(NC[C@H](O)COc2cccc3[nH]c(O)nc23)CC1
36					CCCCCCNC(=O)Nc1ccc(S(=O)(=O)N2CCC(NC[C@H](O)COc3cccc4[nH]c(=O)[nH]c34)CC2)cc1
70					O=c1[nH]c2cccc(OC[C@@H](O)CNC3CCN(S(=O)(=O)c4ccc5oc6ccccc6c5c4)CC3)c2[nH]1
90			> 100000	> 100000	COc1ccc(S(=O)(=O)N2CCC(NC[C@H](O)COc3cccc4[nH]c(=O)[nH]c34)CC2)cc1OC
920	1				CCC(C)(C)c1ccc(S(=O)(=O)N2CCC(NC[C@H](O)COc3cccc4[nH]c5ccccc5c34)CC2)cc1
120			> 100000	> 100000	COc1ccc(S(=O)(=O)N2CCC(NC[C@H](O)COc3cccc4[nH]c(=O)[nH]c34)CC2)cc1
	1.2	0.14	> 100000	> 100000	COc1ccc(S(=O)(=O)N2CCC(NC[C@H](O)COc3cccc4[nH]c5ccccc5c34)CC2)cc1OC
	0.75				O=S(=O)(c1cccc2nsnc12)N1CCC(NC[C@H](O)COc2cccc3[nH]c(O)nc23)CC1
	0.87	0.33			COc1ccc(S(=O)(=O)N2CCC(NC[C@H](O)COc3cccc4[nH]c(O)nc34)CC2)cc1OC
	0.88	0.11	100000	> 100000	COc1ccc(S(=O)(=O)N2CCC(NC[C@H](O)COc3cccc4[nH]c5ccccc5c34)CC2)cc1

Further lines, the compound ahead of its results:

Compound	EC50 [1] [nM]	Intrinsic activity [2]	Intrinsic activity [3]	EC50 [4] [nM]	EC50 [5] [nM]
CCCCOc1ccc(S(=O)(=O)N2CC(NC[C@H](O)c3ccc(O)c(NS(C)(=O)=O)c3)C2)cc1	1100	0.78			
CCCCOc1ccc(S(=O)(=O)N2CCC(NC[C@H](O)COc3ccc(O)cc3)CC2)cc1	> 2000				
CCCCCCNC(=O)Nc1ccc(S(=O)(=O)N2CCC(NC[C@H](O)c3ccc(O)c(NS(C)(=O)=O)c3)CC2)cc1	5	0.82	0.66	12	920
COc1ccc(S(=O)(=O)N2CCC(NC[C@H](O)COc3ccc(O)cc3)CC2)cc1	55	0.74	0.46	10300	> 100000
CCCCOc1ccc(S(=O)(=O)N2CC(NC[C@H](O)COc3cccc4[nH]c5ccccc5c34)C2)cc1	> 2000				
CCCCOc1ccc(S(=O)(=O)N2CCC(NC[C@H](O)COc3cccc4[nH]c5ccccc5c34)CC2)cc1		0.74	0.04	> 100000	> 100000
CCCCOc1ccc(S(=O)(=O)N2CCC(NC[C@H](O)c3ccc(O)c(NS(C)(=O)=O)c3)C2)cc1 (stereo not given in full)	360	0.79			
CCCCOc1ccc(S(=O)(=O)N2CCC(NC[C@H](O)COc3cccc4[nH]c5ccccc5c34)C2)cc1 (stereo not given in full)	> 2000				
CCCCOc1ccc(S(=O)(=O)N2CC(NC[C@H](O)c3ccc(O)cc3)C2)cc1	30	0.82	0.49	1600	920
CCCCCCNC(=O)Nc1ccc(S(=O)(=O)N2CCC(NC[C@H](O)COc3ccc(O)cc3)CC2)cc1	> 2000				
CCCCCCNC(=O)Nc1ccc(S(=O)(=O)N2CCC(NC[C@H](O)COc3cccc4[nH]c(O)nc34)CC2)cc1		0.74			
CS(=O)(=O)Nc1cc([C@@H](O)CNC2CCN(S(=O)(=O)c3ccc4oc5ccccc5c4c3)CC2)ccc1O	120	0.88			
